Experimental data: US11560373B2, “Compounds and their use as PDE4 activators” (Mironid Limited, priority 2018, dated 2023)

target: T1, PDE4B2 (Homo sapiens, UniProt Q07343); assay: PDE assay, [3H]cAMP hydrolysis by HEK-PDE4B2 cell lysate cytosol fraction (short form); assay type: biochemical; details: mean % increase in counts over basal activity
T1 construct: the full length human PDE4B2 short isoform; made in house
Procedure: (§1) HEK 293 cells were transfected with pDEST™ PDE4 expression vectors using Lipofectamine LTX/Plus reagent (Invitrogen) as outlined by the manufacturer and clonal isolates expanded to obtain cell lines that stably expressed the full-length human PDE4D5, PDE4B1 and PDE4A4 long isoforms and the full length human PDE4B2 short isoform. These were called the HEK-PDE4D5, HEK-PDE4B1, HEK-PDE4A4 and HEK-PDE4B2 cell lines, respectively.
(§2) HEK-PDE4D5 cells were seeded out in 100 mm plates and incubated at 37° C. in an atmosphere of 5% CO2, 95% air. Cell lysates were prepared using KHEM buffer [50 mM KCl, 10 mM EGTA, 50 mM HEPES (pH 7.2), 1.92 mM MgCl2].
(§3) To prepare the cell lysates, the 100 mm plates containing the cells were placed on ice and washed with ice-cold PBS (phosphate buffered saline, pH 7.4). KHEM buffer (500 μl) was added to the cells. Cells were then scraped off the plate and triturated using a needle (BD Microlance™ 0.8, 40 mm). The lysed cells were then centrifuged at 2000 rpm for 10 minutes to remove cell debris and the supernatant (cell lysate containing recombinant PDE4D5) was transferred to a fresh tube and kept on ice.
(§4) The cell lysate containing recombinant PDE4D5 was transferred into a centrifuge tube and placed into an ultracentrifuge (BECKMAN COULTER) and spun at high speed (100,000 g) for 30 minutes at 4° C. The cytosol fraction was then collected and its protein amount determined using a BCA protein assay.
(§5) PDE assays were performed in thin walled V-bottomed 96-well plates. The assays were performed at a final concentration of 10 mM Tris/5 mM MgCl2 plus PDE4D5 cell lysate cytosol fraction, containing over-expressed PDE4D5, with and without test compound. The lysate/compound mix were incubated together for 15 min at room temperature on an orbital shaker prior to addition of [^3H] cAMP (final concentration 1 μM [^3H] cAMP; Perkin Elmer) to a final volume of 50 μl per reaction. The reactions were then incubated for 10 minutes at 30° C., terminated by heating for 2 min at 95° C. and allowed to cool. Snake venom (12.5 μl of 1 mg/ml; Crotalus atrox, Sigma) was then added and the plates were agitated and incubated for a further 15 minutes at 30° C. Dowex ion exchange resin (Sigma, chloride form, 200-400 mesh; 200 μl; prepared as a 1:1 Dowex: water stock, thoroughly re-suspended and diluted 2:1 with ethanol) was then added to each well and the plates incubated for 15 min at room temperature on an orbital shaker ensuring sufficient agitation for resin suspension (550 RPM). The reaction mixture was then transferred to a 96 well filter plate (Millipore; […] pore size) and filtered into a receiving 96-well plate to remove the dowex suspension. 30 μL of the filtered solution was then transferred to the wells of an Opti-plate (Perkin Elmer) 96 well assay plate and 120 μl of Microscint 40 scintillation fluid was added. The plate was then placed on an orbital shaker for 10 min at high speed (900 RPM) to mix the sample with scintillation fluid prior to quantitation using a plate based scintillation counter (Top-Count).
(§6) The % increase in counts in the presence of test compound at a particular concentration indicates the % increase in enzyme activity at that concentration.

T1 sequence (Q07343 1-564 isoform Q07343-2): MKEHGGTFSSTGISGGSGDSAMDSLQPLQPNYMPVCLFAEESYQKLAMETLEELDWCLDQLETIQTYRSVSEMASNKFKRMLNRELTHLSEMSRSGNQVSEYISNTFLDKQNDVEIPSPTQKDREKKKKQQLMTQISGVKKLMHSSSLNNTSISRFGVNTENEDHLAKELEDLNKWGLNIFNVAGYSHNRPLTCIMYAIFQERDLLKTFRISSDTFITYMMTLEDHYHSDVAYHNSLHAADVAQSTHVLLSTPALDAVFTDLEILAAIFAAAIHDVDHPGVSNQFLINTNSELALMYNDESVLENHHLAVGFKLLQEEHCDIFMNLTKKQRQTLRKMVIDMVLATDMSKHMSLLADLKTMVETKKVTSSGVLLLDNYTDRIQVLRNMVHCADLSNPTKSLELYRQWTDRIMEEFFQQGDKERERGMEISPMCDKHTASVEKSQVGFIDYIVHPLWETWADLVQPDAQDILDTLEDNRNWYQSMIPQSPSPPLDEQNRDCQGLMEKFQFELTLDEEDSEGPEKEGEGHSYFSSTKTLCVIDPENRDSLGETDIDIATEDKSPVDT

Compound | % increase in PDE4B2 activity at 30 μM [%]
CCn1nc(-c2ccc(Cl)c(OC)c2)nc1CC(=O)NCc1cc(Cl)cc(Cl)c1 [Example 29, 2-[3-(4-Chloro-3-methoxyphenyl)-1-ethyl-1H-1,2,4-triazol-5-yl]-N-[(3,5-dichlorophenyl)methyl]acetamide] | 3.4
CCn1nc(-c2ccc(Cl)c(OCCOC)c2)nc1CC(=O)NCc1cc(Cl)cc(Cl)c1 [Example 33, 2-{3-[4-Chloro-3-(2-methoxyethoxy)phenyl]-1-ethyl-1H-1,2,4-triazol-5-yl}-N-[(3,5-dichlorophenyl)methyl]acetamide] | −9.4
CCn1nc(-c2ccc(Cl)c(OC(C)C)c2)nc1CC(=O)N[C@H]1CCOc2ccc(Cl)cc21 [Example 40, N-[(4S)-6-Chloro-3,4-dihydro-2H-1-benzopyran-4-yl]-2-[3-(4-chloro-3-isopropyloxyphenyl)-1-ethyl-1H-1,2,4-triazol-5-yl]acetamide] | 1.6

target: T2, PDE4B1 (Homo sapiens, UniProt Q07343); assay: PDE assay, [3H]cAMP hydrolysis by HEK-PDE4B1 cell lysate cytosol fraction; assay type: biochemical; details: mean % increase in counts over basal activity
T2 construct: stably expressed the full-length human PDE4D5, PDE4B1 and PDE4A4 long isoforms; made in house
T2 sequence (Q07343 whole entry, canonical isoform): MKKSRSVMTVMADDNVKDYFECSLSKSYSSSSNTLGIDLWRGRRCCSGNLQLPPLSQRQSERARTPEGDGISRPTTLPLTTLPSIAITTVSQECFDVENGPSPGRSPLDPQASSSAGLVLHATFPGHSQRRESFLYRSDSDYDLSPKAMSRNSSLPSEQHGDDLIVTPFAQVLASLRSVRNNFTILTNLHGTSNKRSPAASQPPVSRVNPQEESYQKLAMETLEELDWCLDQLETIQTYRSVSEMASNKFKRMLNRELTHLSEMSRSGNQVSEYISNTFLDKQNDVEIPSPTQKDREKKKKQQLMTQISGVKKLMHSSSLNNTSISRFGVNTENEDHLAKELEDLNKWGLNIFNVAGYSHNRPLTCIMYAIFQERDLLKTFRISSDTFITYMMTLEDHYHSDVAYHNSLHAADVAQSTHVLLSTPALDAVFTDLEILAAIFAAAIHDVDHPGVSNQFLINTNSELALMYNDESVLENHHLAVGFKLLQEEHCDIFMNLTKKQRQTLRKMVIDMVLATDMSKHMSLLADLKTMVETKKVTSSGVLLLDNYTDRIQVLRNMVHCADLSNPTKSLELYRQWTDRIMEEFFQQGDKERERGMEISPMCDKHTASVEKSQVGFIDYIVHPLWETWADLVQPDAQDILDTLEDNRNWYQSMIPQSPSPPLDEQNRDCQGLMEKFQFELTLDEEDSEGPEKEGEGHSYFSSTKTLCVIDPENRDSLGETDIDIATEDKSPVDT

Compound | % increase in PDE4B1 activity at 30 μM [%]
CCn1nc(-c2ccc(Cl)c(F)c2)nc1CC(=O)NCc1cccc(F)c1 [Example 1, 2-[3-(4-Chloro-3-fluorophenyl)-1-ethyl-1H-1,2,4-triazol-5-yl]-N-(3-fluorobenzyl) acetamide] | 79.1

target: T3, PDE4D5 (Homo sapiens, UniProt Q08499); assay: PDE assay, [3H]cAMP hydrolysis by HEK-PDE4D5 cell lysate cytosol fraction; assay type: biochemical; details: 30 μM; mean % increase in counts over basal activity
T3 construct: stably expressed the full-length human PDE4D5, PDE4B1 and PDE4A4 long isoforms; made in house
Procedure: as §1, §2, §3, §4, §5, §6

T3 sequence (Q08499 1-745 isoform Q08499-6): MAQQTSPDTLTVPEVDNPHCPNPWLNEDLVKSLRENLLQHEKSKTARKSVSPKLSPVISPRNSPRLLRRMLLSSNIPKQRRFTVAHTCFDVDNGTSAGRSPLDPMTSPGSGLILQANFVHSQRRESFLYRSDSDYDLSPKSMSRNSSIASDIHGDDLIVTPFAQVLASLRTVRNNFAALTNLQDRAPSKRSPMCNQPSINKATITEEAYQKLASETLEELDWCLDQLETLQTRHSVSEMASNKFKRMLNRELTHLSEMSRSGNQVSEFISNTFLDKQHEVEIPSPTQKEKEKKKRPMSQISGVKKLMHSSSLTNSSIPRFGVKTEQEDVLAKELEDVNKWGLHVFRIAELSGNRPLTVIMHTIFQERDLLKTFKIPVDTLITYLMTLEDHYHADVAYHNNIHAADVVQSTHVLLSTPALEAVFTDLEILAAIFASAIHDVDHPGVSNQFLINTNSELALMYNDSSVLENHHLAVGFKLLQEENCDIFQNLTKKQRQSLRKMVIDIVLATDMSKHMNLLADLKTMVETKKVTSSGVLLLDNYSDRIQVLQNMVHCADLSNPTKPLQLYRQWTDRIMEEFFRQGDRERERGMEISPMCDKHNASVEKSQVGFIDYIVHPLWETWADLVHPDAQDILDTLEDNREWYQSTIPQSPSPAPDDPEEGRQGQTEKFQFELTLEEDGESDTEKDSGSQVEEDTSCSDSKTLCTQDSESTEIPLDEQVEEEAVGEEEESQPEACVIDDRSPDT

Compound | activation at 30 µM [%]
CCn1nc(-c2ccc(Cl)c(OCCOC)c2)nc1CC(=O)NCc1cc(Cl)cc(Cl)c1 [Example 33, 2-{3-[4-Chloro-3-(2-methoxyethoxy)phenyl]-1-ethyl-1H-1,2,4-triazol-5-yl}-N-[(3,5-dichlorophenyl)methyl]acetamide] | 82.3
CCn1nc(-c2ccc(Cl)c(OC(C)C)c2)nc1CC(=O)NCc1ccc2[nH]ncc2c1 [Example 38, 2-[3-(4-Chloro-3-isopropyloxyphenyl)-1-ethyl-1H-1,2,4-triazol-5-yl]-N-[(1H-indazol-5-yl)methyl]acetamide] | 81.6
CCn1nc(-c2ccc(Cl)c(OC(C)C)c2)nc1CC(=O)N[C@H]1CCOc2ccc(Cl)cc21 [Example 40, N-[(4S)-6-Chloro-3,4-dihydro-2H-1-benzopyran-4-yl]-2-[3-(4-chloro-3-isopropyloxyphenyl)-1-ethyl-1H-1,2,4-triazol-5-yl]acetamide] | 48.5
CC(C)Oc1cc(-c2nc(CC(=O)N[C@H]3CCOc4ccccc43)n(C)n2)ccc1Cl [Example 48, 2-[3-(4-Chloro-3-isopropyloxyphenyl)-1-methyl-1H-1,2,4-triazol-5-yl]-N-[(4S)-3,4-dihydro-2H-1-benzopyran-4-yl]acetamide] | 45.2
COC(=O)Cn1nc(-c2ccc(Cl)c(F)c2)nc1CC(=O)NCc1cc(Cl)cc(Cl)c1 [Example 54, Methyl 2-[3-(4-chloro-3-fluorophenyl)-5-({[(3,5-dichlorophenyl)methyl]carbamoyl}methyl)-1H-1,2,4-triazol-1-yl]acetate] | 97.2
CCOC(=O)CCCn1nc(-c2ccc(Cl)c(F)c2)nc1CC(=O)NCc1cc(Cl)cc(Cl)c1 [Example 56, Ethyl 4-[3-(4-chloro-3-fluorophenyl)-5-({[(3,5-dichlorophenyl)methyl]carbamoyl}methyl)-1H-1,2,4-triazol-1-yl]butanoate] | 155
O=C(O)CCn1nc(-c2ccc(Cl)c(F)c2)nc1CC(=O)NCc1cc(Cl)cc(Cl)c1 [Example 58, 3-[3-(4-Chloro-3-fluorophenyl)-5-({[(3,5-dichlorophenyl)methyl]carbamoyl}methyl)-1H-1,2,4-triazol-1-yl]propanoic acid] | 128
CCn1nc(-c2ccc(Cl)c(F)c2)nc1CC(=O)N[C@@H]1c2ccccc2C[C@@H]1O [Example 62, 2-[3-(4-Chloro-3-fluorophenyl)-1-ethyl-1H-1,2,4-triazol-5-yl]-N-[(1R,2S)-2-hydroxy-2,3-dihydro-1H-inden-1-yl]acetamide] | 49.8
CCn1nc(-c2ccc(Cl)c(F)c2)nc1CC(=O)N[C@H]1C[C@H](O)c2ccccc21 [Example 68, 2-[3-(4-Chloro-3-fluorophenyl)-1-ethyl-1H-1,2,4-triazol-5-yl]-N-[(1S,3S)-3-hydroxy-2,3-dihydro-1H-inden-1-yl]acetamide] | 51.3
CCn1nc(-c2ccc(Cl)c(F)c2)nc1CC(=O)N[C@H]1CCOc2ccccc21 [Example 74, 2-[3-(4-Chloro-3-fluorophenyl)-1-ethyl-1H-1,2,4-triazol-5-yl]-N-[(4S)-3,4-dihydro-2H-1-benzopyran-4-yl]acetamide] | 55.3
CCn1nc(-c2ccc(Cl)c(F)c2)nc1CC(=O)NCc1ccnc(C(F)(F)F)c1 [Example 83, 2-[3-(4-Chloro-3-fluorophenyl)-1-ethyl-1H-1,2,4-triazol-5-yl]-N-{[2-(trifluoromethyl)pyridin-4-yl]methyl}acetamide] | 89.6
CCn1nc(-c2ccc(Cl)c(F)c2)nc1CC(=O)NCc1ccnc(C(F)F)c1 [Example 84, 2-[3-(4-Chloro-3-fluorophenyl)-1-ethyl-1H-1,2,4-triazol-5-yl]-N-{[2-(difluoromethyl)pyridin-4-yl]methyl}acetamide] | 32.2

Second part, the molecule after the results:

activation at 30 µM [%] | Compound
104 | CCn1nc(-c2ccc(Cl)c(OC)c2)nc1CC(=O)NCc1cc(Cl)cc(Cl)c1 [Example 29, 2-[3-(4-Chloro-3-methoxyphenyl)-1-ethyl-1H-1,2,4-triazol-5-yl]-N-[(3,5-dichlorophenyl)methyl]acetamide]
40 | CCn1nc(-c2ccc(Cl)c(OC(C)C)c2)nc1CC(=O)N[C@H]1CCc2ncccc21 [Example 42, 2-[3(4-Chloro-3-isopropyloxyphenyl)-1-ethyl-1H-1,2,4-triazol-5-yl]-N-[(5S)-5H,6H,7H-cyclopenta[b]pyridin-5-yl]acetamide]
45 | CC(C)Oc1cc(-c2nc(CC(=O)N[C@H]3CCc4ccccc43)n(C)n2)ccc1Cl [Example 44]
26.2 | CC(C)Oc1cc(-c2nc(CC(=O)NCc3cccc(F)c3)n(C)n2)ccc1Cl [Example 46, 2-[3-(4-Chloro-3-isopropyloxyphenyl)-1-methyl-1H-1,2,4-triazol-5-yl]-N-[(3-fluorophenyl)methyl]acetamide]
36.7 | CCn1nc(-c2ccc(Cl)c(F)c2)nc1C(F)(F)C(=O)NCc1cc(Cl)cc(Cl)c1 [Example 50, 2-[3-(4-Chloro-3-fluorophenyl)-1-ethyl-1H-1,2,4-triazol-5-yl]-N-[(3,5-dichlorophenyl)methyl]-2,2-difluoroacetamide]
73.8 | CCn1nc(-c2ccc(Cl)c(F)c2)nc1C(F)(F)C(=O)NCc1ccc2[nH]c(C)nc2c1 [Example 52, 2-[3-(4-Chloro-3-fluorophenyl)-1-ethyl-1H-1,2,4-triazol-5-yl]-2,2-difluoro-N-[(2-methyl-1H-1,3-benzimidazol-5-yl)methyl]acetamide]
92.1 | CCn1nc(-c2ccc(Cl)c(F)c2)nc1CC(=O)NC1Cc2ccccc2C1 [Example 66, 2-[3-(4-Chloro-3-fluorophenyl)-1-ethyl-1H-1,2,4-triazol-5-yl]-N-(2,3-dihydro-1H-inden-2-yl)acetamide]
92 | O=C(Cc1nc(-c2ccc(Cl)c(F)c2)nn1CC1CC1)N[C@H]1CCc2ccccc21 [Example 72, 2-[3-(4-Chloro-3-fluorophenyl)-1-(cyclopropylmethyl)-1H-1,2,4-triazol-5-yl]-N-[(1S)-2,3-dihydro-1H-inden-1-yl]acetamide]
79.1 | O=C(Cc1nc(-c2ccc(Cl)c(F)c2)nn1CC1CC1)N[C@H]1CCOc2ccc(Cl)cc21 [Example 78, N-[(4S)-6-Chloro-3,4-dihydro-2H-1-benzopyran-4-yl]-2-[3-(4-chloro-3-fluorophenyl)-1-(cyclopropylmethyl)-1H-1,2,4-triazol-5-yl]acetamide]
58.9 | CCc1cc(CNC(=O)Cc2nc(-c3ccc(Cl)c(F)c3)nn2CC)cc(CC)n1 [Example 80, 2-[3-(4-Chloro-3-fluorophenyl)-1-ethyl-1H-1,2,4-triazol-5-yl]-N-[(2,6-diethylpyridin-4-yl)methyl]acetamide]
34.3 | CCn1nc(-c2ccc(Cl)c(OC(C)C)c2)nc1CC(=O)NCc1cc(C)cc(C)n1 [Example 82, 2-[3-(4-Chloro-3-isopropyloxyphenyl)-1-ethyl-1H-1,2,4-triazol-5-yl]-N-[(4,6-dimethylpyridin-2-yl)methyl]acetamide]
37.3 | CCn1nc(-c2ccc(Cl)c(F)c2)nc1CC(=O)NC1(c2cc(C)nc(C)c2)CC1 [Example 86, 2-[3-(4-Chloro-3-fluorophenyl)-1-ethyl-1H-1,2,4-triazol-5-yl]-N-[1-(2,6-dimethylpyridin-4-yl)cyclopropyl]acetamide]
